The values that follow come from ChEMBL document CHEMBL1150631, “New chemical constituents of Euphorbia quinquecostata and absolute configuration assignment by a convenient Mosher ester procedure carried out in NMR tubes” (J Nat Prod, 2002).

Structures are written as SMILES. In brackets after ≈: the same amount, converted by molar mass.

This test in a line: Inhibition of 12-O-tetradecanoylphorbol 13-acetate-induced transformation of mouse JB6 cells after 14 days by soft agar transformation assay. In kind it is functional, cell-based.

`COc1ccc(/C=C/C=O)cc1OC` [3,4-DIMETHOXY CINNAMALDEHYDE] had a 50% inhibitory concentration (IC50) of 2.3 µg/mL (≈ 12 µM).

The term IC50 denotes the midpoint of a concentration-inhibition curve. A lower IC50 goes with higher potency.
